Assay results published in patent US9695171B2, “3,4-disubstituted-1 H-pyrrolo[2,3-b]pyridines and 4,5-disubstituted-7H-pyrrolo[2,3-c]pyridazines as LRRK2 inhibitors” (Pfizer Inc., priority 2013, dated 2017).

target: T1, GST-tagged truncated LRRK2 (Homo sapiens, UniProt Q5S007); assay: LRRK2 kinase assay (Lantha Screen); type: biochemical; conditions: 1 mM ATP (head); a = geometric mean of >=4 determinations, b = single determination; read-out: LRRK2 LANTHA EC50 at 1 mM ATP; Geometric mean of 2-3 determinations unless otherwise indicated
T1 construct: GST-tagged truncated LRRK2 from Invitrogen (Cat # PV4874); GST; purchased Invitrogen PV4874
T1 sequence (Q5S007 970-2527 limits assumed): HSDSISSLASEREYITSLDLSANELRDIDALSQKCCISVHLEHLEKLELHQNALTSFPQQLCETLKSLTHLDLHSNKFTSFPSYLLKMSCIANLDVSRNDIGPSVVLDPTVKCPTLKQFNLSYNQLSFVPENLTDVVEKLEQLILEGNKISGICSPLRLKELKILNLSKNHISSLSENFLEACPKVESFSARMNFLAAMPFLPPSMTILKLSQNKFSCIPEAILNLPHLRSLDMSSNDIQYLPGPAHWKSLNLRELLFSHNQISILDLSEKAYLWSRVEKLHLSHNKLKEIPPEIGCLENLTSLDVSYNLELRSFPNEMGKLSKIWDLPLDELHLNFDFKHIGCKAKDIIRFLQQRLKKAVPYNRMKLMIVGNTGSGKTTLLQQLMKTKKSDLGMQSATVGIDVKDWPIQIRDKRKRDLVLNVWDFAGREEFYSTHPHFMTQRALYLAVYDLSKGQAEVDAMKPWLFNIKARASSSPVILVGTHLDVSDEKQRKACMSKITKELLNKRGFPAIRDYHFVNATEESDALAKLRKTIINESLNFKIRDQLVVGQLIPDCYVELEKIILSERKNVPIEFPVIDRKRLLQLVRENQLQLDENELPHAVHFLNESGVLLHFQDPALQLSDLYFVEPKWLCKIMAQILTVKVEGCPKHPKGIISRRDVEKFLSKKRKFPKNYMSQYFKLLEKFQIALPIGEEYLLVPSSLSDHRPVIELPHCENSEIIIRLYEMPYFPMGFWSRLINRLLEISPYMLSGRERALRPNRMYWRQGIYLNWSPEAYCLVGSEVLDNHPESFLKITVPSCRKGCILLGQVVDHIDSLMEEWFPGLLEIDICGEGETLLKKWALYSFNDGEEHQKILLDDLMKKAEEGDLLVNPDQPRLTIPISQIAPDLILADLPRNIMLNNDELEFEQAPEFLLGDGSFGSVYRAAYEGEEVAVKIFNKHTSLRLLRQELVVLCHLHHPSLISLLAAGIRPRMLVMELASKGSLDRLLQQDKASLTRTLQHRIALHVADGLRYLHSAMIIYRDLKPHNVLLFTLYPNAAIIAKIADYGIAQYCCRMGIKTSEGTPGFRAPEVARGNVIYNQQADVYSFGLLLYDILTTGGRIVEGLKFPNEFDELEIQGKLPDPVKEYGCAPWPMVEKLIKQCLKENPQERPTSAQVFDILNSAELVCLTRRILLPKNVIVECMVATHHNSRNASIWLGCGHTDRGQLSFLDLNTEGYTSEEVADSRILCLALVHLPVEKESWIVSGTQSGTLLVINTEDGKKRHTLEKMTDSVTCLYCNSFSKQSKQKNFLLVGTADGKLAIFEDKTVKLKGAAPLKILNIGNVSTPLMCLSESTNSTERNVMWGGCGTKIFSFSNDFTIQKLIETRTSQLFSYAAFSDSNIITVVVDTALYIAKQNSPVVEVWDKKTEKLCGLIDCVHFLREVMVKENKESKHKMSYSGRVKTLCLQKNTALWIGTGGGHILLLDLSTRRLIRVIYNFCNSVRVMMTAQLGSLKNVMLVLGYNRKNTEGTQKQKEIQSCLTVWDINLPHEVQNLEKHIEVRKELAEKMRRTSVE

Compound | EC50
N#Cc1cccc(-c2c[nH]c3nccc(-c4cccnc4)c23)c1 [Example 93, 3-[4-(pyridin-3-yl)-1H-pyrrolo[2,3-b]pyridin-3-yl]benzonitrile] | 45.6 nM
Cn1cc(-c2c[nH]c3nccc(-c4ccc(F)c(F)c4)c23)cn1 [Example 94, 4-(3,4-difluorophenyl)-3-(1-methyl-1H-pyrazol-4-yl)-1H-pyrrolo[2,3-b]pyridine] | 45.6 nM
COc1cccc(-c2ccnc3[nH]cc(-c4cnn(C)c4)c23)c1F [Example 98, 4-(2-fluoro-3-methoxyphenyl)-3-(1-methyl-1H-pyrazol-4-yl)-1H-pyrrolo[2,3-b]pyridine] | 85.9 nM
Cn1cc(-c2ccnc3[nH]cc(-c4cccc(C#N)c4)c23)cn1 [Example 101, 3-[4-(1-methyl-1H-pyrazol-4-yl)-1H-pyrrolo[2,3-b]pyridin-3-yl]benzonitrile] | 101 nM
Cn1cc(-c2c[nH]c3nccc(-c4ccncc4)c23)cn1 [Example 102, 3-(1-methyl-1H-pyrazol-4-yl)-4-(pyridin-4-yl)-1H-pyrrolo[2,3-b]pyridine] | 102 nM
Cn1cc(-c2c[nH]c3nccc(-c4cc(F)cc(F)c4)c23)cn1 [Example 103, 4-(3,5-difluorophenyl)-3-(1-methyl-1H-pyrazol-4-yl)-1H-pyrrolo[2,3-b]pyridine] | 125 nM
COc1ccc(-c2ccnc3[nH]cc(-c4cnn(C)c4)c23)c(F)c1 [Example 105, 4-(2-fluoro-4-methoxyphenyl)-3-(1-methyl-1H-pyrazol-4-yl)-1H-pyrrolo[2,3-b]pyridine] | 143 nM
Cn1cc(-c2c[nH]c3nccc(-c4ccc5scnc5c4)c23)cn1 [Example 107, 5-[3-(1-methyl-1H-pyrazol-4-yl)-1H-pyrrolo[2,3-b]pyridin-4-yl]-1,3-benzothiazole] | 169 nM
Cn1cc(-c2c[nH]c3nccc(-c4cccc(CC#N)c4)c23)cn1 [Example 108, {3-[3-(1-methyl-1H-pyrazol-4-yl)-1H-pyrrolo[2,3-b]pyridin-4-yl]phenyl}acetonitrile] | 185 nM
COCc1cccc(-c2ccnc3[nH]cc(-c4cnn(C)c4)c23)c1 [Example 111, 4-[3-(methoxymethyl)phenyl]-3-(1-methyl-1H-pyrazol-4-yl)-1H-pyrrolo[2,3-b]pyridine] | 234 nM
Cc1nnc(-c2cccc(-c3ccnc4[nH]cc(-c5cccc(C#N)c5)c34)c2)o1 [Example 112, 3-{4-[3-(5-methyl-1,3,4-oxadiazol-2-yl)phenyl]-1H-pyrrolo[2,3-b]pyridin-3-yl}benzonitrile] | 234 nM

More lines, in order of falling EC50, values ahead:

EC50 | Compound
201 nM | Cn1cc(-c2c[nH]c3nncc(N4CCOCC4)c23)cn1 [Example 110, 5-(1-methyl-1H-pyrazol-4-yl)-4-(morpholin-4-yl)-7H-pyrrolo[2,3-c]pyridazine]
188 nM | Cn1cc(-c2c[nH]c3nccc(-c4cccc(C#N)c4)c23)cn1 [Example 109, 3-[3-(1-methyl-1H-pyrazol-4-yl)-1H-pyrrolo[2,3-b]pyridin-4-yl]benzonitrile]
144 nM | Cn1cc(-c2c[nH]c3nccc(-c4ccoc4)c23)cn1 [Example 106, 4-(furan-3-yl)-3-(1-methyl-1H-pyrazol-4-yl)-1H-pyrrolo[2,3-b]pyridine]
138 nM | COc1ccc(-c2ccnc3[nH]cc(-c4cnn(C)c4)c23)cc1F [Example 104, 4-(3-fluoro-4-methoxyphenyl)-3-(1-methyl-1H-pyrazol-4-yl)-1H-pyrrolo[2,3-b]pyridine]
99.2 nM | COc1ccc(F)c(F)c1-c1c[nH]c2ncc(C#N)c(C3CC3)c12 [Example 100, 4-cyclopropyl-3-(2,3-difluoro-6-methoxyphenyl)-1H-pyrrolo[2,3-b]pyridine-5-carbonitrile]
92.5 nM | CNS(=O)(=O)c1cccc(-c2ccnc3[nH]cc(-c4cccc(C#N)c4)c23)c1 [Example 99, 3-[3-(3-cyanophenyl)-1H-pyrrolo[2,3-b]pyridin-4-yl]-N-methylbenzenesulfonamide]
63.1 nM | Cn1cc(-c2c[nH]c3nccc(-c4cccc(Cl)c4)c23)cn1 [Example 97, 4-(3-chlorophenyl)-3-(1-methyl-1H-pyrazol-4-yl)-1H-pyrrolo[2,3-b]pyridine]
58.9 nM | Cn1cc(-c2c[nH]c3nccc(-c4cccc(F)c4F)c23)cn1 [Example 96, 4-(2,3-difluorophenyl)-3-(1-methyl-1H-pyrazol-4-yl)-1H-pyrrolo[2,3-b]pyridine]
49.5 nM | Cn1cc(-c2c[nH]c3nccc(-c4cc(F)ccc4F)c23)cn1 [Example 95, 4-(2,5-difluorophenyl)-3-(1-methyl-1H-pyrazol-4-yl)-1H-pyrrolo[2,3-b]pyridine]
43.7 nM | N#Cc1cccc(-c2c[nH]c3nncc(N4CCOCC4)c23)c1F [Example 92, 2-fluoro-3-[4-(morpholin-4-yl)-7H-pyrrolo[2,3-c]pyridazin-5-yl]benzonitrile]
